According to ChEMBL document CHEMBL4725364, “Discovery of a Copper-Based Mcl-1 Inhibitor as an Effective Antitumor Agent” (J Med Chem, 2020):

Test system: MM1.S
Assay: Cytotoxicity against human MM1.S cells after 24 hrs by MTT assay
Format: functional, cell-based
Settings: not given

Structure (SMILES)	IC50 [µM]
Cc1nn(C)c(COc2ccc(N3CCN(S(=O)(=O)N(C)C)CC3)cc2)c1-c1cccc2c(CCCOc3cccc4ccccc34)c(C(=O)O)n(CCN3CCOCC3)c12	> 40
c1ccc(-c2nccc3c2[nH]c2ccccc23)nc1	> 40
CCn1c2ccccc2c2ccnc(-c3ccccn3)c21	> 40
c1ccc(Cn2c3ccccc3c3ccnc(-c4ccccn4)c32)cc1	> 40
CCOCCn1c2ccccc2c2ccnc(-c3ccccn3)c21	> 40
Cc1ccc(Cn2c3ccccc3c3ccnc(-c4ccccn4)c32)cc1	> 40
Fc1ccc(Cn2c3ccccc3c3ccnc(-c4ccccn4)c32)cc1	> 40
c1ccc(OCCn2c3ccccc3c3ccnc(-c4ccccn4)c32)cc1	> 40
c1ccc(-c2nccc3c4ccccc4n(CC4CC4)c23)nc1	> 40
c1ccc(-c2nccc3c4ccccc4n(Cc4ccc5ccccc5c4)c23)nc1	> 40
c1ccc(COCCn2c3ccccc3c3ccnc(-c4ccccn4)c32)cc1	> 40
c1ccc(CCn2c3ccccc3c3ccnc(-c4ccccn4)c32)cc1	> 40

Test system: KMS-12-PE
Assay: Cytotoxicity against human KMS-12-PE cells after 24 hrs by MTT assay
Format: functional, cell-based
Settings: not given

Structure (SMILES)	IC50 [µM]
Cc1nn(C)c(COc2ccc(N3CCN(S(=O)(=O)N(C)C)CC3)cc2)c1-c1cccc2c(CCCOc3cccc4ccccc34)c(C(=O)O)n(CCN3CCOCC3)c12	> 40
c1ccc(-c2nccc3c2[nH]c2ccccc23)nc1	> 40
CCn1c2ccccc2c2ccnc(-c3ccccn3)c21	> 40
c1ccc(Cn2c3ccccc3c3ccnc(-c4ccccn4)c32)cc1	> 40
CCOCCn1c2ccccc2c2ccnc(-c3ccccn3)c21	> 40
Cc1ccc(Cn2c3ccccc3c3ccnc(-c4ccccn4)c32)cc1	> 40
Fc1ccc(Cn2c3ccccc3c3ccnc(-c4ccccn4)c32)cc1	> 40
c1ccc(OCCn2c3ccccc3c3ccnc(-c4ccccn4)c32)cc1	> 40
c1ccc(-c2nccc3c4ccccc4n(CC4CC4)c23)nc1	> 40
c1ccc(-c2nccc3c4ccccc4n(Cc4ccc5ccccc5c4)c23)nc1	> 40
c1ccc(COCCn2c3ccccc3c3ccnc(-c4ccccn4)c32)cc1	> 40
c1ccc(CCn2c3ccccc3c3ccnc(-c4ccccn4)c32)cc1	> 40

Test system: L-363
Assay: Cytotoxicity against human L-363 cells after 24 hrs by MTT assay
Format: functional, cell-based
Settings: L-363, 24 h

Structure (SMILES)	IC50 [µM]
Cc1nn(C)c(COc2ccc(N3CCN(S(=O)(=O)N(C)C)CC3)cc2)c1-c1cccc2c(CCCOc3cccc4ccccc34)c(C(=O)O)n(CCN3CCOCC3)c12	11.8
c1ccc(-c2nccc3c2[nH]c2ccccc23)nc1	> 40
CCn1c2ccccc2c2ccnc(-c3ccccn3)c21	> 40
c1ccc(Cn2c3ccccc3c3ccnc(-c4ccccn4)c32)cc1	> 40
CCOCCn1c2ccccc2c2ccnc(-c3ccccn3)c21	> 40
Cc1ccc(Cn2c3ccccc3c3ccnc(-c4ccccn4)c32)cc1	33.5
Fc1ccc(Cn2c3ccccc3c3ccnc(-c4ccccn4)c32)cc1	> 40
c1ccc(OCCn2c3ccccc3c3ccnc(-c4ccccn4)c32)cc1	> 40
c1ccc(-c2nccc3c4ccccc4n(CC4CC4)c23)nc1	> 40
c1ccc(-c2nccc3c4ccccc4n(Cc4ccc5ccccc5c4)c23)nc1	> 40
c1ccc(COCCn2c3ccccc3c3ccnc(-c4ccccn4)c32)cc1	> 40
c1ccc(CCn2c3ccccc3c3ccnc(-c4ccccn4)c32)cc1	24.9

Biological target: T1, Induced myeloid leukemia cell differentiation protein Mcl-1 (Homo sapiens, UniProt Q07820)
T1 sequence (Q07820 whole entry, the tested form may be a part): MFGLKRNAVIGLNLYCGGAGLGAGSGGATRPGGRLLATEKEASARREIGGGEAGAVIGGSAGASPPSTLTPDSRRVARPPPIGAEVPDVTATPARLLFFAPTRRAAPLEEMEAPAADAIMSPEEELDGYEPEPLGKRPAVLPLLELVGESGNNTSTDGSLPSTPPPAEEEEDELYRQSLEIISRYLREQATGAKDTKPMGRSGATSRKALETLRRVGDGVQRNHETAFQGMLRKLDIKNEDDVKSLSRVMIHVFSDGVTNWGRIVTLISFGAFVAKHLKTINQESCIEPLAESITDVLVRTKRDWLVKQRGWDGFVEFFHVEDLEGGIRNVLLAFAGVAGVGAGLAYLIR
Assay: Inhibition of biotinylated Bim peptide (81 to 106 residues) binding to His-tagged Mcl-1 (171 to 327 residues) (unknown origin) expressed in Escherichia coli BL21 (DE3) cells preincubated for 1 hr followed by biotinylated Bim peptide addition measured after 2 hrs by ELISA
Settings: not given

Structure (SMILES)	IC50 [µM]
Cc1nn(C)c(COc2ccc(N3CCN(S(=O)(=O)N(C)C)CC3)cc2)c1-c1cccc2c(CCCOc3cccc4ccccc34)c(C(=O)O)n(CCN3CCOCC3)c12	0.0125
c1ccc(-c2nccc3c2[nH]c2ccccc23)nc1	> 10
CCn1c2ccccc2c2ccnc(-c3ccccn3)c21	> 10
c1ccc(Cn2c3ccccc3c3ccnc(-c4ccccn4)c32)cc1	> 10
CCOCCn1c2ccccc2c2ccnc(-c3ccccn3)c21	> 10
Cc1ccc(Cn2c3ccccc3c3ccnc(-c4ccccn4)c32)cc1	> 10
Fc1ccc(Cn2c3ccccc3c3ccnc(-c4ccccn4)c32)cc1	> 10
c1ccc(OCCn2c3ccccc3c3ccnc(-c4ccccn4)c32)cc1	> 10
c1ccc(-c2nccc3c4ccccc4n(CC4CC4)c23)nc1	> 10
c1ccc(-c2nccc3c4ccccc4n(Cc4ccc5ccccc5c4)c23)nc1	> 10
c1ccc(COCCn2c3ccccc3c3ccnc(-c4ccccn4)c32)cc1	> 10
c1ccc(CCn2c3ccccc3c3ccnc(-c4ccccn4)c32)cc1	> 10

Biological target: T1, Induced myeloid leukemia cell differentiation protein Mcl-1
Assay: Inhibition of N-terminal biotin-labeled BIM BH3 peptide (141 to 166 residues) binding to His-tagged Mcl-1 (171 to 327 residues) (unknown origin) expressed in Escherichia coli BL21 (DE3) cells incubated for >=30 mins by […]
Settings: not given

Structure (SMILES)	IC50 [µM]
Cc1nn(C)c(COc2ccc(N3CCN(S(=O)(=O)N(C)C)CC3)cc2)c1-c1cccc2c(CCCOc3cccc4ccccc34)c(C(=O)O)n(CCN3CCOCC3)c12	0.0088
c1ccc(-c2nccc3c2[nH]c2ccccc23)nc1	> 10
CCn1c2ccccc2c2ccnc(-c3ccccn3)c21	> 10
c1ccc(Cn2c3ccccc3c3ccnc(-c4ccccn4)c32)cc1	> 10
CCOCCn1c2ccccc2c2ccnc(-c3ccccn3)c21	> 10
Cc1ccc(Cn2c3ccccc3c3ccnc(-c4ccccn4)c32)cc1	9.08
Fc1ccc(Cn2c3ccccc3c3ccnc(-c4ccccn4)c32)cc1	> 10
c1ccc(OCCn2c3ccccc3c3ccnc(-c4ccccn4)c32)cc1	> 10
c1ccc(-c2nccc3c4ccccc4n(CC4CC4)c23)nc1	> 10
c1ccc(-c2nccc3c4ccccc4n(Cc4ccc5ccccc5c4)c23)nc1	8.52
c1ccc(COCCn2c3ccccc3c3ccnc(-c4ccccn4)c32)cc1	> 10
c1ccc(CCn2c3ccccc3c3ccnc(-c4ccccn4)c32)cc1	8.81

Test system: not listed separately
Assay: Cytotoxicity against human MOLP8 cells after 24 hrs by MTT assay
Format: functional, cell-based
Settings: MOLP-8, 24 h

Structure (SMILES)	IC50 [µM]
Cc1nn(C)c(COc2ccc(N3CCN(S(=O)(=O)N(C)C)CC3)cc2)c1-c1cccc2c(CCCOc3cccc4ccccc34)c(C(=O)O)n(CCN3CCOCC3)c12	9.7
c1ccc(-c2nccc3c2[nH]c2ccccc23)nc1	> 40
CCn1c2ccccc2c2ccnc(-c3ccccn3)c21	> 40
c1ccc(Cn2c3ccccc3c3ccnc(-c4ccccn4)c32)cc1	> 40
CCOCCn1c2ccccc2c2ccnc(-c3ccccn3)c21	> 40
Cc1ccc(Cn2c3ccccc3c3ccnc(-c4ccccn4)c32)cc1	27.5
Fc1ccc(Cn2c3ccccc3c3ccnc(-c4ccccn4)c32)cc1	34.7
c1ccc(OCCn2c3ccccc3c3ccnc(-c4ccccn4)c32)cc1	> 40
c1ccc(-c2nccc3c4ccccc4n(CC4CC4)c23)nc1	> 40
c1ccc(-c2nccc3c4ccccc4n(Cc4ccc5ccccc5c4)c23)nc1	> 40
c1ccc(COCCn2c3ccccc3c3ccnc(-c4ccccn4)c32)cc1	> 40
c1ccc(CCn2c3ccccc3c3ccnc(-c4ccccn4)c32)cc1	21.4

Test system: NCI-H929
Assay: Cytotoxicity against human NCI-H929 cells after 24 hrs by MTT assay
Format: functional, cell-based
Settings: NCI-H929, 24 h

Structure (SMILES)	IC50 [µM]
Cc1nn(C)c(COc2ccc(N3CCN(S(=O)(=O)N(C)C)CC3)cc2)c1-c1cccc2c(CCCOc3cccc4ccccc34)c(C(=O)O)n(CCN3CCOCC3)c12	8.6
c1ccc(-c2nccc3c2[nH]c2ccccc23)nc1	> 40
CCn1c2ccccc2c2ccnc(-c3ccccn3)c21	> 40
c1ccc(Cn2c3ccccc3c3ccnc(-c4ccccn4)c32)cc1	37.4
CCOCCn1c2ccccc2c2ccnc(-c3ccccn3)c21	> 40
Cc1ccc(Cn2c3ccccc3c3ccnc(-c4ccccn4)c32)cc1	17.9
Fc1ccc(Cn2c3ccccc3c3ccnc(-c4ccccn4)c32)cc1	25.4
c1ccc(OCCn2c3ccccc3c3ccnc(-c4ccccn4)c32)cc1	> 40
c1ccc(-c2nccc3c4ccccc4n(CC4CC4)c23)nc1	> 40
c1ccc(-c2nccc3c4ccccc4n(Cc4ccc5ccccc5c4)c23)nc1	> 40
c1ccc(COCCn2c3ccccc3c3ccnc(-c4ccccn4)c32)cc1	> 40
c1ccc(CCn2c3ccccc3c3ccnc(-c4ccccn4)c32)cc1	14.3

Biological target: T1, Induced myeloid leukemia cell differentiation protein Mcl-1
Assay: Displacement of Flu-BID/FAM-BID from His-tagged Mcl-1 (171 to 327 residues) (unknown origin) expressed in Escherichia coli BL21 (DE3) cells incubated for 3 hrs by fluorescence polarization assay
Settings: not given

Structure (SMILES)	Ki [µM]
Cc1nn(C)c(COc2ccc(N3CCN(S(=O)(=O)N(C)C)CC3)cc2)c1-c1cccc2c(CCCOc3cccc4ccccc34)c(C(=O)O)n(CCN3CCOCC3)c12	0.0047
c1ccc(-c2nccc3c2[nH]c2ccccc23)nc1	> 10
CCn1c2ccccc2c2ccnc(-c3ccccn3)c21	> 10
c1ccc(Cn2c3ccccc3c3ccnc(-c4ccccn4)c32)cc1	6.13
CCOCCn1c2ccccc2c2ccnc(-c3ccccn3)c21	> 10
Cc1ccc(Cn2c3ccccc3c3ccnc(-c4ccccn4)c32)cc1	4.93
Fc1ccc(Cn2c3ccccc3c3ccnc(-c4ccccn4)c32)cc1	5.52
c1ccc(OCCn2c3ccccc3c3ccnc(-c4ccccn4)c32)cc1	> 10
c1ccc(-c2nccc3c4ccccc4n(CC4CC4)c23)nc1	> 10
c1ccc(-c2nccc3c4ccccc4n(Cc4ccc5ccccc5c4)c23)nc1	6.61
c1ccc(COCCn2c3ccccc3c3ccnc(-c4ccccn4)c32)cc1	7.88
c1ccc(CCn2c3ccccc3c3ccnc(-c4ccccn4)c32)cc1	3.13

Test system: LP-1
Assay: Cytotoxicity against human LP-1 cells after 24 hrs by MTT assay
Format: functional, cell-based
Settings: LP-1, 24 h

Structure (SMILES)	IC50 [µM]
Cc1nn(C)c(COc2ccc(N3CCN(S(=O)(=O)N(C)C)CC3)cc2)c1-c1cccc2c(CCCOc3cccc4ccccc34)c(C(=O)O)n(CCN3CCOCC3)c12	10.6
c1ccc(-c2nccc3c2[nH]c2ccccc23)nc1	> 40
CCn1c2ccccc2c2ccnc(-c3ccccn3)c21	> 40
c1ccc(Cn2c3ccccc3c3ccnc(-c4ccccn4)c32)cc1	> 40
CCOCCn1c2ccccc2c2ccnc(-c3ccccn3)c21	> 40
Cc1ccc(Cn2c3ccccc3c3ccnc(-c4ccccn4)c32)cc1	25.8
Fc1ccc(Cn2c3ccccc3c3ccnc(-c4ccccn4)c32)cc1	33.6
c1ccc(OCCn2c3ccccc3c3ccnc(-c4ccccn4)c32)cc1	> 40
c1ccc(-c2nccc3c4ccccc4n(CC4CC4)c23)nc1	> 40
c1ccc(-c2nccc3c4ccccc4n(Cc4ccc5ccccc5c4)c23)nc1	> 40
c1ccc(COCCn2c3ccccc3c3ccnc(-c4ccccn4)c32)cc1	> 40
c1ccc(CCn2c3ccccc3c3ccnc(-c4ccccn4)c32)cc1	18.8

Test system: K562
Assay: Cytotoxicity against human K562 cells after 24 hrs by MTT assay
Format: functional, cell-based
Settings: K562, 24 h

Structure (SMILES)	IC50 [µM]
Cc1nn(C)c(COc2ccc(N3CCN(S(=O)(=O)N(C)C)CC3)cc2)c1-c1cccc2c(CCCOc3cccc4ccccc34)c(C(=O)O)n(CCN3CCOCC3)c12	13.9
c1ccc(-c2nccc3c2[nH]c2ccccc23)nc1	> 40
CCn1c2ccccc2c2ccnc(-c3ccccn3)c21	> 40
c1ccc(Cn2c3ccccc3c3ccnc(-c4ccccn4)c32)cc1	32.8
CCOCCn1c2ccccc2c2ccnc(-c3ccccn3)c21	> 40
Cc1ccc(Cn2c3ccccc3c3ccnc(-c4ccccn4)c32)cc1	22.6
Fc1ccc(Cn2c3ccccc3c3ccnc(-c4ccccn4)c32)cc1	28.9
c1ccc(OCCn2c3ccccc3c3ccnc(-c4ccccn4)c32)cc1	> 40
c1ccc(-c2nccc3c4ccccc4n(CC4CC4)c23)nc1	> 40
c1ccc(-c2nccc3c4ccccc4n(Cc4ccc5ccccc5c4)c23)nc1	> 40
c1ccc(COCCn2c3ccccc3c3ccnc(-c4ccccn4)c32)cc1	> 40
c1ccc(CCn2c3ccccc3c3ccnc(-c4ccccn4)c32)cc1	17.9
